The text below walks through data of patent US20230151431A1, “METHODS AND COMPOSITIONS FOR IDENTIFYING AND TREATING GLUTAMINASE INHIBITOR-SENSITIVE CANCERS” (DANA-FARBER CANCER INSTITUTE, INC., priority 2020, published 2023).

In test [1] the test system is SLC7A11 knock-out LU99 cells. The test is described as follows: CellTiter-Glo cell viability, SLC7A11 knock-out LU99 cells vs LacZ control. The test is classed as cell-based, human. How it is done: (§1) Cell viability was assayed using a modified manufacturer's protocol for CellTiter-Glo® (Promega #G7573). Cells were seeded at a density of 2000 cells per well in a 96 well black, clear bottom plate (Corning #89091-012) in 100 uL total media per well. The following day different concentrations of compounds at various doses were printed in triplicate in a random well format using the Tecan D300e Digital Dispenser. After 72 hours, 60 μL of a 1:3 solution of CellTiterGlo reagent in 1×PBS (Corning #01018002) was added per well and allowed to incubate at RT for 10 mins. Luminescence was measured with an integration time of 0.1 s using Envision Microplates Reader (PERKIN ELMER #2105-0010). Biological replicates were averaged and normalized to vehicle control. Dose curves were generated using Graphpad Prism.

The test system of a further test is NCI-H2122 cells. Nature of the test: Cell viability, NCI-H2122 cells with SLC7A11 knock-out and/or SLC25A45 over-expression. Type of test: cell-based, human. To be noted: for effect of SLC7A11 knock-out and SLC25A45 over-expression on cell viability under treatment: SLC7A11 knock-out or SLC25A45 over-expression vs wild type. How it is done: as §1
The next test relates to LU99 cells. Nature of the test: CellTiter-Glo cell viability, LU99 wild type cells. Conditions: Homo sapiens, Lu-99, read-out: IC50 (percent viability). Type of test: cell-based. The procedure:
as §1

Test [2] concerns LU99 cells over-expressing SLC25A45. Nature of the test: CellTiter-Glo cell viability, LU99 cells over-expressing SLC25A45. The test is classed as cell-based. Conditions: Homo sapiens, Lu-99, SLC25A45 overexpression. The procedure: as §1
For test [3], the system named is LU99 cells with ectopic expression of FAM3B. The test is described as follows: CellTiter-Glo cell viability, LU99 cells with ectopic expression of FAM3B. Type of test: cell-based, human. How it is done: as §1
In the next test the test system is 500 cancer cell lines. The test is described as follows: PRISM multiplex cancer cell line viability screen. The test is classed as cell-based, human. Conditions: 5,000 small molecules against 500 cancer cell lines. How it is done: Parental cell lines were obtained from the Cancer Cell Line Encyclopedia (CCLE) project. PRISM cell line barcoding, pooling, and screening was performed as previously described with several improvements to the original method. First, the lentiviral vector was modified to encode the unique barcode identifier at the end of the puromycin resistance gene. This enables barcodes to be detected using a variant of the mRNA capture and Luminex detection method developed for the L1000 gene expression assay. Second, a set of ten inert barcodes were spiked-in to each well of each plate after cell lysis to control for variation in PCR amplification as detailed below.
Luminex technology produced .Ixb files containing data for each Luminex bead observed during detection. These .Ixb files were processed to compute Median Fluorescence Intensity (MFI) values, calculated as the median of the values obtained for all beads corresponding to a single PRISM barcode. […]
For each cell line on each plate, the distribution of MFI values observed for the DMSO-treated negative controls was compared to that of the positive controls using a robust form of the Strictly Standardized Mean Difference (SSMD*)’. Specifically, SSMD* was calculated as: […]
Cell viability was calculated as the ratio of nMFI to the median of the nMFI from the DMSO-treated negative controls for each cell line on each plate. […]

The test system of test [4] is multiple solid tumor and hematopoietic cancer types. To be noted: monotherapy, phase 1 clinical trials; cited from earlier work.

As for `CN(C)c1ccc(C2Nc3ccc4ccccc4c3C3=C2C(=O)CC(C)(C)C3)cc1Br` (centres unmarked) [compound 968], in test [1], the “rescue from inhibitor-induced cell killing by knock-out of SLC7A11” value is “not rescued”. For the same compound, the “effect of SLC7A11 knock-out and SLC25A45 over-expression on cell viability under treatment” value in the test on NCI-H2122 cells is recorded as “no significant rescue of sensitivity”.

For the compound `O=C(Cc1cccc(OC(F)(F)F)c1)Nc1ccc(CCCCc2nnc(NC(=O)Cc3ccccn3)s2)nn1` [Telaglenastat], the IC50 in the test on LU99 cells was 1.2 nM; in test [2], 22 nM; in test [3] (Homo sapiens, Lu-99, ectopic expression of FAM3B), above 10000 nM. Also, in test [1], the “rescue from inhibitor-induced cell killing by knock-out of SLC7A11” value is reported as “rescued”. In addition, the “effect of SLC7A11 knock-out and SLC25A45 over-expression on cell viability under treatment” value in the test with NCI-H2122 cells is recorded as “increase cell viability”. The “sensitivity of cells with combined SLC7A11 knock-out and SLC25A45 over-expression” value in the test on NCI-H2122 cells (combination of SLC7A11 knock-out and SLC25A45 over-expression) was “almost completely resistant”. Besides, the “cell line killing in PRISM screen” value in the test with 500 cancer cell lines was “selectively kill cell lines across a broad range of lineages”. In addition, in test [4], the clinical response entry is reported as “only occasional responses”.

Regarding `O=C(Cc1cccc(OC(F)(F)F)c1)Nc1ccc(CCCCc2nnc(NC(=O)Cc3ccccn3)[se]2)nn1` [Glutaminase IN 1], the “rescue from inhibitor-induced cell killing by knock-out of SLC7A11” value in test [1] was “rescued sensitivity”. In addition, the “effect of SLC7A11 knock-out and SLC25A45 over-expression on cell viability under treatment” value with NCI-H2122 cells is listed as “increase cell viability”.

In the case of `CC(=O)O[C@H]1C(=O)[C@@]2(C)[C@H]([C@H](OC(=O)c3ccccc3)[C@]3(O)C[C@H](OC(=O)[C@H](O)[C@@H](NC(=O)c4ccccc4)c4ccccc4)C(C)=C1C3(C)C)[C@]1(OC(C)=O)CO[C@@H]1C[C@@H]2O` [Paclitaxel], the concentration for half-maximal inhibition (IC50) with LU99 cells stood at 2.2 nM. Further, in test [3] (ectopic FAM3B vs wild type), the “change in effects on cell death by ectopic FAM3B expression” value is “no change”. Moreover, the “effect of SLC7A11 knock-out and SLC25A45 over-expression on cell viability under treatment” value with NCI-H2122 cells is “no significant rescue of sensitivity”.

As to `O=C(Cc1ccccc1)Nc1nnc(CCSCCc2nnc(NC(=O)Cc3ccccc3)s2)s1` [BPTES, Bis-2-(5-phenylacetamido-1,3,4-thiadiazol-2-yl)ethyl sulfide], the “rescue from inhibitor-induced cell killing by knock-out of SLC7A11” value in test [1] is recorded as “rescued sensitivity”. Also, the “effect of SLC7A11 knock-out and SLC25A45 over-expression on cell viability under treatment” value in the test on NCI-H2122 cells was “increase cell viability”.
